From PubChem BioAssay (NCI)
“And” between values parts separate entries of the source, which are not always exact repeats. Equal entries are not always repeated.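 How tested: cells in 96-well plates exposed to compound for 48 hours at five concentrations. Here, GI50 denotes the concentration required for 50% inhibition of growth. Definition used: TGI = concentration required for complete inhibition of growth.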

Columns and labels:
Assay in all cases: DTP human tumour cell line panel, 48 h
OVCAR-3 ovarian = test system: OVCAR-3 ovarian
HCT-15 colon = test system: HCT-15 colon
786-0 renal = test system: 786-0 renal
ACHN renal = test system: ACHN renal
NCI-H460 lung = test system: NCI-H460 lung
SN12C renal = test system: SN12C renal
SF-295 CNS = test system: SF-295 CNS
SK-MEL-28 melanoma = test system: SK-MEL-28 melanoma
MDA-MB-231 breast = test system: MDA-MB-231 breast
NCI/ADR-RES ovarian = test system: NCI/ADR-RES ovarian

## CCn1c2ccccc2c(=O)c2c(OC)ccc(OC)c21
OVCAR-3 ovarian
  TGI: > 100 µM
HCT-15 colon
  TGI: > 100 µM
786-0 renal
  TGI: > 100 µM
ACHN renal
  TGI: > 100 µM
NCI-H460 lung
  TGI: > 100 µM
SN12C renal
  TGI: > 100 µM
SF-295 CNS
  TGI: > 100 µM

## O=[N+]([O-])c1ccc(C(Cl)C(Cl)c2ccc(C(Cl)C(Cl)c3ccc([N+](=O)[O-])cc3[N+](=O)[O-])cc2)c([N+](=O)[O-])c1 (stereo unspecified)
HCT-15 colon
  GI50: 0.214 µM
  TGI: 3.3 µM and 0.55 µM
SK-MEL-28 melanoma
  GI50: 0.389 µM
  TGI: 12.3 µM and 1.96 µM
786-0 renal
  GI50: 0.321 µM
  TGI: 5.62 µM and 1.09 µM
ACHN renal
  GI50: 0.268 µM
  TGI: 6.04 µM and 0.85 µM
NCI-H460 lung
  GI50: 0.249 µM
  TGI: 2.15 µM and 0.723 µM
SN12C renal
  GI50: 0.307 µM
  TGI: 5.41 µM and 1.25 µM
SF-295 CNS
  GI50: 0.602 µM
  TGI: 25.8 µM and 5.76 µM

## Cc1ccc(/C=C(\NC(=O)c2ccccc2)c2nc3ccccc3[nH]2)cc1
OVCAR-3 ovarian
  TGI: > 100 µM
HCT-15 colon
  TGI: > 100 µM
SK-MEL-28 melanoma
  TGI: > 100 µM
786-0 renal
  TGI: > 100 µM
ACHN renal
  TGI: > 100 µM
NCI-H460 lung
  TGI: > 100 µM
SN12C renal
  TGI: > 100 µM
SF-295 CNS
  TGI: > 100 µM

## CCC1C(C(=O)Nc2ccccc2C)=C(C)NC(C)=C1c1ccccc1C (stereo unspecified)
OVCAR-3 ovarian
  TGI: > 100 µM
HCT-15 colon
  TGI: > 54.8 µM
SK-MEL-28 melanoma
  TGI: > 100 µM
786-0 renal
  TGI: > 100 µM
ACHN renal
  TGI: > 100 µM
NCI-H460 lung
  TGI: > 67.1 µM
SN12C renal
  TGI: > 100 µM
SF-295 CNS
  TGI: > 100 µM

## C[C@@H](NS(=O)(=O)c1ccc(NC(=O)c2ccccc2)cc1)C(=O)O
OVCAR-3 ovarian
  TGI: > 100 µM
HCT-15 colon
  TGI: > 100 µM
SK-MEL-28 melanoma
  TGI: > 100 µM
786-0 renal
  TGI: > 100 µM
ACHN renal
  TGI: > 100 µM
NCI-H460 lung
  TGI: > 100 µM
SN12C renal
  TGI: > 100 µM
SF-295 CNS
  TGI: > 100 µM

## Cn1c2c(c3ccccc31)CCN(CCCCN1CCN(c3ccccc3)CC1)C2=O
OVCAR-3 ovarian
  TGI: > 100 µM
HCT-15 colon
  TGI: > 100 µM
SK-MEL-28 melanoma
  TGI: > 61.8 µM
786-0 renal
  TGI: > 46.4 µM
ACHN renal
  TGI: > 100 µM
NCI-H460 lung
  TGI: > 93.8 µM
SN12C renal
  TGI: > 91.4 µM
SF-295 CNS
  TGI: > 100 µM

## COC(=O)c1ncc2c(=O)[nH]c3ccccc3c2c1C(=O)OC
OVCAR-3 ovarian
  TGI: > 100 µM
HCT-15 colon
  TGI: > 100 µM
SK-MEL-28 melanoma
  TGI: > 100 µM
786-0 renal
  TGI: > 100 µM
ACHN renal
  TGI: > 100 µM
NCI-H460 lung
  TGI: 47.3 µM
SN12C renal
  TGI: > 100 µM
SF-295 CNS
  TGI: > 100 µM

## C=C1C(=O)O[C@H]2[C@H](OC(C)=O)[C@@H](C)CCCC3(C)OC3CCC3(CO3)[C@H](O)C[C@@H]12 (stereo partly specified)
MDA-MB-231 breast
  GI50: 8.22 µM
  TGI: 23.9 µM
OVCAR-3 ovarian
  GI50: 3.62 µM
  TGI: 18.1 µM
HCT-15 colon
  GI50: 10.2 µM
  TGI: 21.8 µM
SK-MEL-28 melanoma
  GI50: 8.36 µM
  TGI: 41.6 µM
786-0 renal
  GI50: 5.15 µM
  TGI: 21 µM
ACHN renal
  GI50: 10.4 µM
  TGI: 22.3 µM
NCI-H460 lung
  GI50: 12.9 µM
  TGI: 36 µM
SN12C renal
  GI50: 10.4 µM
  TGI: 24.8 µM
SF-295 CNS
  GI50: 11.4 µM
  TGI: 28.3 µM

## O=C(O)c1cc(=O)cc(C(=O)O)o1
NCI/ADR-RES ovarian
  GI50: > 100 µM
  TGI: > 100 µM
OVCAR-3 ovarian
  GI50: > 100 µM
  TGI: > 100 µM
HCT-15 colon
  GI50: > 100 µM
  TGI: > 100 µM
SK-MEL-28 melanoma
  GI50: > 100 µM
  TGI: > 100 µM
786-0 renal
  GI50: > 100 µM
  TGI: > 100 µM
ACHN renal
  GI50: > 100 µM
  TGI: > 100 µM
NCI-H460 lung
  GI50: > 100 µM
  TGI: > 100 µM
SF-295 CNS
  GI50: > 100 µM
  TGI: > 100 µM

## COc1cc(CNCCN2C(=O)c3ccc4c5c(ccc(c35)C2=O)C(=O)N(CCNCc2cc(OC)c(OC)c(OC)c2)C4=O)cc(OC)c1OC
MDA-MB-231 breast
  GI50: 0.181 µM
  TGI: 0.605 µM
NCI/ADR-RES ovarian
  GI50: 2.05 µM
  TGI: 50 µM
OVCAR-3 ovarian
  GI50: 0.174 µM
  TGI: 0.548 µM
786-0 renal
  GI50: 0.145 µM
  TGI: 0.391 µM
ACHN renal
  GI50: 0.487 µM
  TGI: 1.12 µM
SN12C renal
  GI50: 0.622 µM
  TGI: 1.38 µM
SF-295 CNS
  GI50: 0.494 µM
  TGI: 1.3 µM

## CCN(CC)CC(C)C(=O)/C=C/c1ccc(C)cc1 (stereo unspecified)
OVCAR-3 ovarian
  TGI: 9.93 µM
HCT-15 colon
  TGI: 5.71 µM
SK-MEL-28 melanoma
  TGI: 3.69 µM
786-0 renal
  TGI: 3.65 µM
ACHN renal
  TGI: 4.36 µM
NCI-H460 lung
  TGI: 17 µM
SN12C renal
  TGI: 3.02 µM
SF-295 CNS
  TGI: 28.6 µM

## NS(=O)(=O)c1ccc(NC(=O)Cc2nc3ccccc3s2)cc1
OVCAR-3 ovarian
  TGI: 30.4 µM
HCT-15 colon
  TGI: 32.3 µM
SK-MEL-28 melanoma
  TGI: 32 µM
786-0 renal
  TGI: 33.5 µM
ACHN renal
  TGI: 29.3 µM
NCI-H460 lung
  TGI: 35.6 µM
SN12C renal
  TGI: 30.9 µM
SF-295 CNS
  TGI: 33.2 µM

## CC(C)(C)c1cc(CCCCCCCC2(CCCCCCCc3cc(C(C)(C)C)cc(C(C)(C)C)c3)OC(COCCOCCCCCC#N)C(COCCOCCCCCC#N)O2)cc(C(C)(C)C)c1 (stereo unspecified)
OVCAR-3 ovarian
  TGI: > 100 µM
HCT-15 colon
  TGI: > 100 µM
SK-MEL-28 melanoma
  TGI: > 100 µM
786-0 renal
  TGI: > 100 µM
ACHN renal
  TGI: > 100 µM
NCI-H460 lung
  TGI: > 100 µM
SN12C renal
  TGI: > 100 µM
SF-295 CNS
  TGI: > 100 µM

## O=C(O)c1ccc(C(O)(c2ccccc2)c2ccccc2)cc1
MDA-MB-231 breast
  TGI: > 100 µM
NCI/ADR-RES ovarian
  TGI: > 100 µM
OVCAR-3 ovarian
  TGI: > 100 µM
HCT-15 colon
  TGI: > 100 µM
SK-MEL-28 melanoma
  TGI: > 100 µM
786-0 renal
  TGI: > 100 µM
ACHN renal
  TGI: > 100 µM
SN12C renal
  TGI: > 100 µM
SF-295 CNS
  TGI: > 100 µM

## COc1cccc(-c2cc(=O)c3cc(N4CCOCC4)ccc3[nH]2)c1
NCI/ADR-RES ovarian
  TGI: 0.271 µM and 0.751 µM
OVCAR-3 ovarian
  TGI: 0.0412 µM
HCT-15 colon
  GI50: 0.0328 µM
  TGI: 0.227 µM and 0.575 µM
SK-MEL-28 melanoma
  GI50: 0.0248 µM
786-0 renal
  GI50: 0.0602 µM
  TGI: > 100 µM
ACHN renal
  GI50: 0.0709 µM
  TGI: > 100 µM
NCI-H460 lung
  GI50: 0.272 µM
  TGI: > 100 µM
SN12C renal
  GI50: 0.0868 µM
  TGI: > 100 µM
SF-295 CNS
  GI50: 0.204 µM
